Measured values: US9605241B2, “Induction and stabilization of enzymatic activity in microorganisms” (Georgia State University Research Foundation, Inc., priority 2006, dated 2017)

Legend:
asparaginase I [1] = experiment: Asparaginase I production on supplemented medium; format: cell-based; conditions: asparagine and glutamine added 3.8 mM
Protocol: The induction of asparaginase I production in various nitrile hydratase producing microorganisms was evaluated. All strains were grown on YEMEA medium containing 7.5 g/L of urea and 10 ppm cobalt (provided as cobalt chloride) supplemented with asparagine (ASN), glutamine (GLN), or both asparagine and glutamine. The asparagine and glutamine were added 3.8 mM. As a comparative, enzyme production was also evaluated with supplementation was with acrylonitrile (AN), acrylamide (AMD) or acrylonitrile and acrylamide. Growth temperature was in the range of 26° C. to 30° C.

nitrile hydratase = experiment: Nitrile hydratase induction by inducers (Example 1); format: cell-based, Rhodococcus sp., strain DAP 96253; conditions: Table 1 comparison
Protocol: The induction of nitrile hydratase activity and amidase activity in Rhodococcus sp., strain DAP 96253, was evaluated using multiple types of inducers (1000 ppm). Three different samples were cultured in YEMEA medium containing 10 ppm cobalt and 7.5 g/L urea and supplemented with acrylonitrile, asparagine, or glutamine. The specific nitrile hydratase activity and the specific amidase activity in each sample was evaluated, and the results are provided below in Table 1, with activities provided in units/mg cdw (cell dry weight). One unit of nitrile hydratase activity relates to the ability to convert 1 Arnol of acrylonitrile to its corresponding amide per minute, per milligram of cells (dry weight) at a of pH 7.0 and a temperature of 30° C. One unit of amidase activity relates to the ability to convert […] of acrylamide to its corresponding acid per minute, per milligram of cells (dry weight) pH of 7.0 and a temperature of 30° C.

asparaginase I [2] = experiment: Effect of inducer and media composition on asparaginase I; format: cell-based; conditions: Rhodococcus sp. DAP 96253; inducer 1000 ppm
Protocol: Testing was performed to evaluate the effect on asparaginase I activity based upon the inducer used. In particular, testing was performed using asparagine, glutamine, succinonitrile, and isovaleronitrile as inducers (all added at 1000 ppm each).

SMILES	ability to induce nitrile hydratase activity compared with acrylonitrile (nitrile hydratase)	ability to induce asparaginase I activity (in words) (asparaginase I [2])	other results
C=CC#N [Acrylonitrile, acrylonitrile]			Asparaginase I Level Based on Growth Medium Supplementation (asparaginase I [1]; Pseudomonas chloroaphis ATCC 13985, 26 °C): 2 Units/mg cdw; Asparaginase I Level Based on Growth Medium Supplementation (asparaginase I [1]; Rhodococcus rhodochrous DAP 96622 ATCC 55898, 26 °C): 8.2 Units/mg cdw; Asparaginase I Level Based on Growth Medium Supplementation (asparaginase I [1]; Rhodococcus sp. DAP 96253 ATCC 55899, 30 °C): 7.8 Units/mg cdw
NC(=O)C[C@H](N)C(=O)O [Asparagine, asparagine]	exceeds the ability of acrylonitrile to induce such activity		
NC(=O)CC[C@H](N)C(=O)O [Glutamine, glutamine]	exceeds the ability of acrylonitrile to induce such activity	showed an ability to induce asparaginase I activity	Asparaginase I Level Based on Growth Medium Supplementation (asparaginase I [1]; Pseudomonas chloroaphis ATCC 43051, 30 °C): No
N#CCCC#N [Succinonitrile, succinonitrile]		showed an ability to induce asparaginase I activity	
